# From patent US20210127709A1, “FEED ADDITIVE COMPRISING A TRP MODULATOR” (PerformaNat GmbH, priority 2018, published 2021)
# Test system: ruminal epithelium
# Test: Ussing chamber: transepithelial current and conductance
# Format: cell-based
# Details: sheep ruminal epithelium, mucosal addition, short-circuit mode, 37° C.
# From the text: All sheep were slaughtered in accordance with German laws for the protection of animals. Removal of tissue occurred directly after death, was stripped and transported to the laboratory in a warm and gassed transport buffer.
# The tissue was mounted into conventional Ussing chambers with an exposure area of 3.14 cm^2 (as described in (Martens and Gabel, 1988, Transport of Na and Cl across the epithelium of ruminant forestomachs: rumen and omasum. A review. Comparative Biochemistry and Physiology Part A: Physiology 90, 569-575)). The chambers contained 16 ml of mucosal and serosal buffer, which was circulated with a gas lift system and warmed to 37° C. with a water jacket.
# After ten minutes the chambers were clamped to short circuit mode (Mussler Scientific Instruments, Aachen, Germany). Transepithelial current (Isc) and conductance (Gt) were measured continuously.
# After an equilibration time of about 30 min under short-circuit conditions, the Ussing chambers were divided into two groups, depending on the transepithelial conductance of the tissues inside the chambers. Group 1 (TRP-group) and Group 2 (TRP-PG-group.)
# Depending on the group 4.8 μl of TRP agonist combined with propylene glycol or 2.4 mg of TRP Agonist was added to the mucosal side of the tissues. Transepithelial current (Isc) and transepithelial conductance (Gt) were measured continuously. […]
compound,measurement,value
"CC1CCC(C(C)C)C(O)C1 (centres unmarked) [TRP (menthol), menthol]","Transepithelial conductance (Gt), maximum increase after addition, mean",+0.563
same,"Transepithelial current (Isc), maximum increase after addition, mean",+0.727
